Assays:
[1] = Aqueous CIR stability test (LC-MS hydrolytic stability in PBS); format: physicochemical; details: PBS with 1% DMSO; ≈10 μM in 1% DMSO/PBS, room temperature; read-out: t1/2 (hydrolytic stability, intact CIR) (converted)
Method: Stability studies were conducted on a Sciex 4000 QTRAP, ESI-LCMS Triple Quadrupole Mass Spectrometer connected to an Agilent 1200 HPLC. All molecules were diluted 100× in PBS from a stable frozen DMSO stock solution reaching a final concentration of ≈10 μM in 1% DMSO/PBS and incubated for different amounts of time at room temperature, prior to LC-MS injection using a gradient of 95:5 to 5:95 (0.1% Formic Acid (aq)) water: ACN over 15 minutes. The integrations of the Absorbance values at 355-365 nm, were determined corresponding to the DNP moiety. The absorbance values corresponding to intact CIR were divided by the sum of intact and hydrolyzed CIR (the imidazole-DNP fragment) to determine fraction CIR intact changing with time. The fraction of intact CIR versus time was plotted on GraphPad Prism 8 using a “Dissociation—One Phase Decay” to extract the half life.
LC-MS analysis of the hydrolytic stability of CIRs 1, 3, and 4 in PBS was performed. The curve fit was done using a monoexponential decay which represents intact CIR plotted as a function of peak integration (corresponding to DNP absorbance) overtime.

PSMA+LNCaP cells = assay: Flow cytometry ADCP assay with mmAb on LNCaP cells; format: cell-based, human
Description: ADCP flow cytometry experiments were run on a BD LSRII Flow Cytometer. The human IgG isotype control used was purchased from Jackson ImmunoResearch (009-000-003). The human IgG1 monoclonal anti-DNP antibody (mAb) was purchased from acrobiosystems (DNP-M2). PSMA expression was confirmed with an anti-PSMA antibody Alexa 647 conjugate (Novus Biologicals, Catalog #FAB4234R). For PSMA competition controls, PMPA was purchased from Sigma (SML1612). Hek-293T (PSMA+/−) cell lines were generously given by Dr. Cyril Barinka (Institute of Biotechnology CAS, Czech Republic). U937 cells were generously given by Dr. John Valliant (McMaster University, Canada). LNCaP cells were generously given by Dr. Karen Mossman (McMaster University, Canada). IFN-γ was purchased from Fischer Scientific (PHC4031). Ultra low IgG FBS was purchased from Fischer Scientific (A3381901). RPMI-1640 was purchased as a powder from Fischer Scientific (31800089) and resuspended. DMEM was purchased as a powder from Fischer Scientific (12800082) and resuspended. […]
For preparation of effector monocytes, 24 hours prior to inducing phagocytosis U937 monocytes were seeded at 500,000 cells/mL and activated with IFN-γ ([…]). After incubation, these cells were then counted and washed twice with serum free assay media (neat RPMI). […] These cells were then counted and washed twice with serum free assay media (neat RPMI). […]

With `O=C(O)CC[C@H](NC(=O)N[C@@H](CCCCNC(=O)NCCOCCOCCOCCOCCOCCOCCOCCOC(=O)n1cnc(CCNC(=O)CNc2ccc([N+](=O)[O-])cc2[N+](=O)[O-])c1)C(=O)O)C(=O)O` [CIR 3] the half-life [1] was roughly 12 h and the “ADCP on LNCaP target cells” value (PSMA+LNCaP cells) was “significant functional advantage compared to non-covalent recruitment across all antibody concentrations tested”.

Reference: patent US11827624B2, “Covalent immune recruiter compounds for immune cell recognition and associated uses” (McMaster University, priority 2020, dated 2023)
